Among the data in ChEMBL document CHEMBL3507680, “University of Dundee, Gates Library screen for HepG2 cell viability” are cytotoxicity values, retold here.

The data set in a line: Human HepG2 cell viability assay in 384 well format. It counts as toxicity, cell-based. Also on record: dose 125 nL, time 70.5 hour; concentration not given beside the values. As to conditions: HepG2 cells, read-out: Inhibition.
Take `CN(C)CCOCC1CN(C(=O)c2cscn2)Cc2ccnn2C1` (stereo not given): the cytotoxicity at 70.5 h is -8.28%. For `CS(=O)(=O)N[C@@H]1CN(Cc2ccccc2)C[C@@H]2CCCO[C@@H]21`, the cytotoxicity at 70.5 h is -4.64%. `CC(C)CNC(=O)c1nc2c(s1)CCN(C(=O)c1ccc(Cl)cc1)CC2`: the cytotoxicity at 70.5 h was -3.22%. Regarding `CCS(=O)(=O)N1CCC2(CC(=O)N(c3cncnc3)C2)C1` (stereo not given), the cytotoxicity at 70.5 h was -3.21%. Turning to `Cn1cccc1C(=O)NCc1cnc2n1CCN(C(N)=O)CC2`, the cytotoxicity at 70.5 h was -4.35%. On to `Cc1noc(C)c1CN1CCOC2(CCCN(c3ccccn3)C2)C1` (stereo not given), for which the cytotoxicity at 70.5 h is -8.65%.

As for `O=C([C@H]1C[C@H]2OCC[C@H]2N(C(=O)c2ccnnc2)C1)N1CCCCO1`, the cytotoxicity at 70.5 h is 1.65%.

For `O=C([C@H]1C[C@H]2OCC[C@H]2N(C(=O)c2cnccn2)C1)N1CCCCO1`, the cytotoxicity at 70.5 h was -8.15%. `Cn1cccc1C(=O)NCc1cnc2n1CCN(C(=O)c1ccoc1)C2`: the cytotoxicity at 70.5 h was -7.47%. In the case of `Cc1occc1C(=O)N1C[C@@H](C(=O)N2CCCCO2)C[C@H]2OCC[C@H]21` it was -7.27%.

Take `Cn1nnc2c1CCN(C(=O)CC1CC1)C2COCCN1CCCC1` (stereo not given): the cytotoxicity at 70.5 h amounted to 8.05%. Turning to `O=C(c1ccoc1)N1CCO[C@]2(CCC[C@@H]2COCc2ccncc2)C1`, the cytotoxicity at 70.5 h came out at 1.38%. For the compound `c1ccc(CN2CCN3C[C@H](Oc4cccnc4)C[C@H]3C2)nc1`, the cytotoxicity at 70.5 h was -3.66%. As for `CC(=O)NCC(=O)N1CCc2c(CNc3ncccn3)cncc2C1`, the cytotoxicity at 70.5 h was -2.19%. With `N#Cc1cccc(CN2C[C@H](OCC3CCOCC3)[C@H]3COC[C@H]32)c1` the figure was -5.67%; with `O=C([C@H]1C[C@H]2OCC[C@H]2N(C(=O)c2ccccn2)C1)N1CCCCO1`, -6.44%.

Take `COCC(=O)N1CCc2c(nnn2C)C1COCCN1CCCC1` (stereo not given): the cytotoxicity at 70.5 h is -2.45%. With `CC(C)N(C)Cc1ncn2c1CN(S(=O)(=O)c1cccs1)CCC2` the figure was 13%; with `CS(=O)(=O)NC[C@@H]1OC[C@H]2CN(C(=O)c3ccccn3)CC[C@H]21`, -3.81%. In the case of `O=C(CC1CC1)N[C@@H]1CN(Cc2ccco2)C[C@@H]2CCCO[C@@H]21`, the cytotoxicity at 70.5 h was -2.26%. For the compound `CNC(=O)[C@@H]1CCO[C@@H]2CCN(C3CCOCC3)C[C@@H]21`, the cytotoxicity at 70.5 h is -0.345%. With `Cc1cc(CN2CC[C@H]3OCC[C@@]3(C(=O)NCc3ccco3)C2)no1` the figure was 0.284%; with `O=C(c1ccc[nH]1)N1CCO[C@]2(CCC[C@@H]2COc2cccnc2)C1`, -2.32%.

Take `CCS(=O)(=O)N1CCC2(CC1)CC(COC)N(c1ncccn1)C2` (stereo not given): the cytotoxicity at 70.5 h was determined as 2.68%. `O=C(c1ccoc1)N1CCO[C@]2(CCC[C@H]2COCc2cccnc2)C1`: the cytotoxicity at 70.5 h is -0.748%.

`O=S(=O)(c1cccs1)N1CCCn2cnc(CO)c2C1`: the cytotoxicity at 70.5 h was -1.4%. For `Cc1ccc(CN2C[C@@H]3CCCO[C@@H]3[C@H](NC(=O)CC3CC3)C2)s1`, the cytotoxicity at 70.5 h is -1.25%.

Take `O=C(N[C@@H]1CN(c2ncccn2)C[C@@H]2CCCO[C@@H]21)c1ccncc1`: the cytotoxicity at 70.5 h is -3.78%. Consider `Fc1ccc(CN2CCCC3(COCCN(Cc4c[nH]nn4)C3)C2)cc1` (stereo not given), for which the cytotoxicity at 70.5 h was -5.93%.

Take `CS(=O)(=O)N[C@@H]1CN(Cc2ccncc2)C[C@@H]2CCCO[C@@H]21`: the cytotoxicity at 70.5 h is -9.37%. For the compound `CN(C)CCN1CCOCC2(CCCN(C(=O)Cc3ccccc3)C2)C1` (stereo not given), the cytotoxicity at 70.5 h is 10.9%.

For `Cn1ccnc1CN1CCN2C[C@H](Oc3ccccc3)C[C@H]2C1`, the cytotoxicity at 70.5 h is 11.2%. In the case of `O=C(NCc1ccncc1)c1nc2c(o1)CN(C(=O)c1cccnc1)C2`, the cytotoxicity at 70.5 h is -0.144%.

Consider `Cn1ccnc1CN1CCN2C[C@H](OCc3ccccc3)C[C@H]2C1`, for which the cytotoxicity at 70.5 h is -1.75%. With `COCC1CC2(CCN(Cc3cccnc3)CC2)CN1c1ncccn1` (stereo not given) the figure was -0.169%.
